Experiments:
HepG2 = experiment: Antiproliferative activity against human HepG2 cells after 48 hrs by MTT assay; assay type: functional, cell-based; conditions: HepG2, 48 h
[1] = Antiproliferative activity against human MGC803 cells after 48 hrs by MTT assay; assay type: functional, cell-based; conditions: MGC-803, 48 h
[2] = Antiproliferative activity against human SGC7901 cells after 48 hrs by MTT assay; assay type: functional, cell-based; conditions: SGC-7901, 48 h
[3] = biological target: Telomerase reverse transcriptase (Homo sapiens, UniProt O14746); experiment: Inhibition of telomerase in human MGC803 cells after 24 hrs by TRAP-PCR-ELISA method; assay type: cell-based, MGC-803
Chain of Telomerase reverse transcriptase (O14746 whole entry): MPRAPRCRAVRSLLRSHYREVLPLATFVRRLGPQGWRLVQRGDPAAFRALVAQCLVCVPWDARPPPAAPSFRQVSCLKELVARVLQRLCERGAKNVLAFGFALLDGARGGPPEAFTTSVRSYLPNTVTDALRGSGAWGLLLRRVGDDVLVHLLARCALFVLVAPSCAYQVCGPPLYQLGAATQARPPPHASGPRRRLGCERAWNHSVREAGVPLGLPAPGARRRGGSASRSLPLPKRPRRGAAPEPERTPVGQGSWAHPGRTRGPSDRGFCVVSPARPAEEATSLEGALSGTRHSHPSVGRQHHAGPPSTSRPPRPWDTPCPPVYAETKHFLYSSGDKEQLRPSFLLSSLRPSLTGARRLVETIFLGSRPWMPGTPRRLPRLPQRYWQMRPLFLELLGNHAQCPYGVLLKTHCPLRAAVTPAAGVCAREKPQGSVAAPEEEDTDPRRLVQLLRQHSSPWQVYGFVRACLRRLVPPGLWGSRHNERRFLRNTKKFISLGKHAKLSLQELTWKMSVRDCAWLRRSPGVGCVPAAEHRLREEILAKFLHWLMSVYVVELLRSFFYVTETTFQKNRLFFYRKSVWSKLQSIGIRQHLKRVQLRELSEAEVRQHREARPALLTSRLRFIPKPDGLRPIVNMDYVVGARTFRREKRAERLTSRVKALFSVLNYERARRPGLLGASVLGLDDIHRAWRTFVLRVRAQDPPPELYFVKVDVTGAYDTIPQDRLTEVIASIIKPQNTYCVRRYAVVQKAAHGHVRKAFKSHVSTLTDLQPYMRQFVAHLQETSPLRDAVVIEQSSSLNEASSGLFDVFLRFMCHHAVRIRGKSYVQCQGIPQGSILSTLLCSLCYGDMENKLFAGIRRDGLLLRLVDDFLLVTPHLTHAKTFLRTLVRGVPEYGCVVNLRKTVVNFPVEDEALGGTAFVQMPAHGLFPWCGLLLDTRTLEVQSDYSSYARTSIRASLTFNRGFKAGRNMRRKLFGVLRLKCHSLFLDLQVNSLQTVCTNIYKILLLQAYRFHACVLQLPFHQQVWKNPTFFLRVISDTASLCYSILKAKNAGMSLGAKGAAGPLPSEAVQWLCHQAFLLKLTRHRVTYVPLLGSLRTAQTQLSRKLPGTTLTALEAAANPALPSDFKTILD

Row | Structure (SMILES) | EC50 (HepG2) [µM] | EC50 [1] [µM] | EC50 [2] [µM] | IC50 [3] [µM]
1 | CC1=NN(S(=O)(=O)c2ccccc2I)C(c2cc(Br)ccc2O)C1 (stereo not given) | > 60 | 52.5 | > 60 | –
2 | CC1=NN(C(=O)CCl)C(c2cc(F)ccc2O)C1 (stereo not given) | 4.21 | 6.87 | 7 | –
3 | COc1ccc(S(=O)(=O)N2N=C(C)CC2c2cc(Br)ccc2O)cc1 (stereo not given) | 38.2 | 20.3 | 21.1 | –
4 | CC1=NN(S(=O)(=O)c2ccc(F)cc2)C(c2cc(Br)ccc2O)C1 (stereo not given) | 50.1 | 15.5 | > 60 | –
5 | CC1=NN(S(=O)(=O)c2ccc(Cl)cc2Cl)C(c2cc(Br)ccc2O)C1 (stereo not given) | 45.2 | 37.9 | > 60 | –
6 | CC1=NN(C(=O)C(F)(F)F)C(c2ccccc2O)C1 (stereo not given) | 4.8 | 2.89 | 2.06 | 1.86
7 | CC1=NN(S(=O)(=O)c2ccc(C(F)(F)F)cc2)C(c2cc(Br)ccc2O)C1 (stereo not given) | 22.1 | 30 | 16.3 | > 60
8 | CC1=NN(C(=O)CBr)C(c2ccccc2O)C1 (stereo not given) | 14.4 | 3.65 | 4.18 | –
9 | CC1=NN(S(=O)(=O)c2ccc(Cl)cc2)C(c2cc(Br)ccc2O)C1 (stereo not given) | > 60 | > 60 | > 60 | –
10 | CC1=NN(S(=O)(=O)c2ccccc2)C(c2cc(Br)ccc2O)C1 (stereo not given) | > 60 | > 60 | 55.6 | –
11 | COc1ccc(C(=O)N2N=C(C)CC2c2ccccc2O)cc1 (stereo not given) | 40.3 | 38.5 | 45.7 | 25
12 | CC1=NN(S(=O)(=O)c2ccccc2C)C(c2cc(Br)ccc2O)C1 (stereo not given) | 39.3 | > 60 | 48.1 | –
13 | CC1=NN(C(=O)CCl)C(c2cc(Cl)ccc2O)C1 (stereo not given) | 20.3 | 12.2 | 14 | –
14 | CC1=NN(C(=O)c2ccc(F)cc2)C(c2ccccc2O)C1 (stereo not given) | 39.2 | 35.4 | 50.3 | 29.8
15 | CC1=NN(C(=O)CCl)C(c2cc(Br)ccc2O)C1 (stereo not given) | 12.3 | 10.5 | 9.21 | –
16 | CC1=NN(C(=O)CF)C(c2ccccc2O)C1 (stereo not given) | 9.41 | 4.26 | 8.6 | 4
17 | CC1=NN(S(=O)(=O)c2ccc([N+](=O)[O-])cc2)C(c2cc(Br)ccc2O)C1 (stereo not given) | > 60 | 22.2 | 27.3 | –
18 | O=c1[nH]cc(F)c(=O)[nH]1 [FLUOROURACIL] | 2.21 | 3.35 | 7.03 | –
19 | CC[n+]1c(-c2ccccc2)c2cc(N)ccc2c2ccc(N)cc21 [HOMIDIUM BROMIDE] | – | – | – | 2.18
